Measured values: publication PMC7248098, “Biochemical characterization and inhibition of the alternative oxidase enzyme from the fungal phytopathogen Moniliophthora perniciosa” (Communications Biology, 2020)
Values joined by “and” are separate entries in the source; they are usually repeats but may differ in a detail not shown here. Equal values may be shown once. “Also recorded” adds a separate entry of the source.

What was measured:
[1] = target: T1, membrane-bound rMpAOX (Moniliophthora perniciosa, UniProt A8QJP8); test: Membrane-bound rMpAOX activity with putative activators (O2 uptake, oxygraph; dose-response); assay type: biochemical; conditions: for Increase of membrane-bound rMpAOX oxygen uptake: 1 mM activator; for Fold-change in membrane-bound rMpAOX O2 uptake: 1 mM each, single independent measurements (Fig1a); for EC50: membrane-bound rMpAOX, 4-parameter sigmoid fit, read-out: EC50 of rMpAOX activation;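 on Fractional velocity, %: 100% is the maximal rate reached in the activator titration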
T1 sequence (A8QJP8 entry or part of it): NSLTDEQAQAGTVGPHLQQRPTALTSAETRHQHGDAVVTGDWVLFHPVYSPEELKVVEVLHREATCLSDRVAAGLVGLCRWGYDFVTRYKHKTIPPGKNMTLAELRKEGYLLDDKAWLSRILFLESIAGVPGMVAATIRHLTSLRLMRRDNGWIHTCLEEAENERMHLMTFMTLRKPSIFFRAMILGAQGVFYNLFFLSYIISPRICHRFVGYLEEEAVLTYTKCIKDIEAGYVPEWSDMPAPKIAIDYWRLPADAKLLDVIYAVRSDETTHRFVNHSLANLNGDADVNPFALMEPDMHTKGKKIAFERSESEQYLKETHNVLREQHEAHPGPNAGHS
Procedure: (§1) E. coli membrane preparation was performed as described with minor modifications. […] The cells were disrupted using two passes at […] through a pre-cooled Constant cell disruption system (Constant Systems Ltd). The lysate was centrifuged for 15 min at 16,000 rcf, and the pelleted unbroken cells and large cell debris were discarded. The supernatant was centrifuged for 90 min at 200,000 rcf to collect the fragmented membranes.
(§2) Respiration rates were recorded before and after the addition of putative AOX activators, such as 5′-ADP, 5′-AMP, 5′-GDP, 5′-GMP, glyoxylate, oxaloacetate, pyruvate or succinate (1 mM each unless stated otherwise). […] Data were acquired with the Multiskan FC Microplate Photometer (ThermoFisher). […] Absorbance readings were taken periodically and a blank reactions (substrate without enzyme) were included in every assay and were used to determine and subtract the autoxidation rate (background). Proteoliposomes were assayed as described for the E. coli membrane fraction except that no KCN was included and 0.5 µL of the prep (~50 ng rMpAOX) were added into the reaction. When tested, inhibitors were preincubated with the enzyme in reaction buffer for 2–5 min before starting the reaction by the addition of substrate. The path length (i.e., the height of the reaction medium inside the well) was calculated based on the reaction volume and the well cross-section area informed by the supplier. GraphPad Prism 7.0 (GraphPad Software Inc.) was used for function fitting.

[2] = target: T1, membrane-bound rMpAOX; test: Dose-response assay of inhibitors with membrane-bound, GMP-activated rMpAOX (NADH oxidation); assay type: biochemical; conditions: for Fractional velocity, % / activity at 0.025 µM / activity at 0.00025 µM / activity at 25 pM / activity at 0.25 µM / activity at 0.0025 µM: log[I]; for activity at 0.025 µM / activity at 0.00025 µM / activity at 25 pM / activity at 0.25 µM / activity at 0.0025 µM: read-out: Fractional velocity, %; for IC50: membrane-bound, GMP-activated rMpAOX, read-out: IC50
Procedure: as §1, §2

| Structure (SMILES) | Increase of membrane-bound rMpAOX oxygen uptake [1] | Fold-change in membrane-bound rMpAOX O2 uptake [1] | Fractional velocity, % ([2]; M -5.60206 (Fig2b), 2.5 µM) | Fractional velocity, % ([2]; M -6.60206 (Fig2b), 0.25 µM) | Fractional velocity, % ([2]; M -7.60206 (Fig2b), 0.025 µM) | activity at 0.025 µM ([2]; M -7.60206 (Fig2b)) | Fractional velocity, % ([2]; M -8.60206 (Fig2b), 0.0025 µM) | Fractional velocity, % ([2]; M -9.60206 (Fig2b), 0.00025 µM) | activity at 0.00025 µM ([2]; M -9.60206 (Fig2b)) | Fractional velocity, % ([2]; M -10.6021 (Fig2b), 25 pM) | activity at 25 pM ([2]; M -10.6021 (Fig2b)) | IC50 [2] | further results |
| --- | --- | --- | --- | --- | --- | --- | --- | --- | --- | --- | --- | --- | --- |
| Nc1ncnc2c1ncn2[C@@H]1O[C@H](COP(=O)(O)OP(=O)(O)O)[C@@H](O)[C@H]1O [ADP, 5′-ADP] | 4.5 times | 5 and 3.654 and 4.737 | – | – | – | – | – | – | – | – | – | – | Fractional velocity, % ([1]; [activator] 0.025 mM (Fig1b)): 29.9% and 27.8%; Fractional velocity, % ([1]; [activator] 0.075 mM (Fig1b)): 31.9% and 29.4%; Fractional velocity, % ([1]; [activator] 0.175 mM (Fig1b)): 33.7% and 32.1%; Fractional velocity, % ([1]; [activator] 0.375 mM (Fig1b)): 36.2% and 33.2%; Fractional velocity, % ([1]; [activator] 0.625 mM (Fig1b)): 46.5% and 35.2%; Fractional velocity, % ([1]; [activator] 1.625 mM (Fig1b)): 64.4% and 58.2%; Fractional velocity, % ([1]; [activator] 3.625 mM (Fig1b)): 97.7% and 79.7%; Fractional velocity, % ([1]; [activator] 6.125 mM (Fig1b)): 128.8% and 99.5%; EC50 [1]: ~6500 µM |
| C/C(=C\Cc1c(O)c(Cl)c(C)c(C=O)c1O)CC/C=C(\C)[C@@H]1CC(=O)C(C)(C)O1 [AF, ascofuranone] | – | – | 3.068% and 1.958% and 7.541% | 2.9011% and 3.314% and 8.873% | 31.9402% and 19.7329% | 20.3% | 81.2456% and 95.1772% and 65.5719% | 94.8574% and 87.6342% | 88% | 94.1707% and 88.3377% | 93.1% | 0.0088 µM | Fractional velocity, % ([2]; M -4.60206 (Fig2b), 25 µM): 3.958% and 2.609% and 7.671% |
| Nc1ncnc2c1ncn2[C@@H]1O[C@H](COP(=O)(O)O)[C@@H](O)[C@H]1O [AMP, 5′-AMP] | 8.1 times | 7.569 and 7.49 and 9.2495 | – | – | – | – | – | – | – | – | – | – | Fractional velocity, % ([1]; [activator] 0.025 mM (Fig1b)): 22.2% and 18.4%; Fractional velocity, % ([1]; [activator] 0.075 mM (Fig1b)): 33.8% and 27.9%; Fractional velocity, % ([1]; [activator] 0.175 mM (Fig1b)): 53.8% and 45.3%; Fractional velocity, % ([1]; [activator] 0.375 mM (Fig1b)): 81.6% and 66.1%; Fractional velocity, % ([1]; [activator] 0.625 mM (Fig1b)): 102% and 87.9%; Fractional velocity, % ([1]; [activator] 1.125 mM (Fig1b)): 134.8% and 120.3%; Fractional velocity, % ([1]; [activator] 2.125 mM (Fig1b)): 172.4% and 157.6%; Fractional velocity, % ([1]; [activator] 4.125 mM (Fig1b)): 201.8% and 188.2%; Fractional velocity, % ([1]; [activator] 6.625 mM (Fig1b)): 199.8%; EC50 [1]: 918 µM and 910 µM |
| CC(C)=CCc1c(O)c(Cl)c(C)c(C=O)c1O [CD, colletochlorin D] | – | – | 6.725% and 4.7683% and 12.1201% | 26.8171% and 38.1389% | 83.3186% and 82.5195% | 81.9% | 98.2807% and 91.2399% | 94.0253% and 92.2465% | 98% | 93.9344% and 89.9529% | 94.5% | 0.115 µM | activity at 0.25 µM ([2]; M -6.60206 (Fig2b)): 28%; activity at 0.0025 µM ([2]; M -8.60206 (Fig2b)): 95.8% |
| Nc1nc2c(ncn2[C@@H]2O[C@H](COP(=O)(O)OP(=O)(O)O)[C@@H](O)[C@H]2O)c(=O)[nH]1 [GDP, 5′-GDP] | did not have any noticeable effect; also recorded: no effect | 1.198 and 1.036 and 1.118 | – | – | – | – | – | – | – | – | – | – | Increase of rMpAOX basal rate ([1]; 6.5 mM): 1.5 times |
| O=CC(=O)O [GLYOX, glyoxylate] | – | 0.6271 and 0.9309 and 0.7633 | – | – | – | – | – | – | – | – | – | – | – |
| CCCCCCCCOC(=O)c1cc(O)c(O)c(O)c1 [OG, octyl gallate] | – | – | 37.6641% and 53.0018% and 32.2387% | 91.8565% and 76.0465% | 96.9123% and 87.3681% | 99% | 100.043% and 88.594% | 96.5387% and 94.2199% | 98% | 93.2034% and 90.1921% | 93.9% | 1.67 µM | Fractional velocity, % ([2]; M -4.60206 (Fig2b), 25 µM): 3.004% and 2.353% and 7.7435%; activity at 0.25 µM ([2]; M -6.60206 (Fig2b)): 92.7%; activity at 0.0025 µM ([2]; M -8.60206 (Fig2b)): 98.8% |
